A compilation of properties of binary mixtures (doi:10.1080/00986445.2015.1114477)

Test: xn = mol fraction of the nth substance listed
Conditions: 100 kPa

## CCCCCCCCn1cc[n+](C)c1.[Cl-] + CN1CCCC1=O
288.15 K, x2 = 0.3221
  viscosity: 1176 mPa·s
288.15 K, x2 = 0.43
  viscosity: 560 mPa·s
288.15 K, x2 = 0.5321
  viscosity: 204 mPa·s
288.15 K, x2 = 0.6343
  viscosity: 86 mPa·s
288.15 K, x2 = 0.7195
  viscosity: 32.3 mPa·s
288.15 K, x2 = 0.8143
  viscosity: 12.78 mPa·s
288.15 K, x2 = 0.9085
  viscosity: 5.24 mPa·s
293.15 K, x2 = 0.21
  viscosity: 2103 mPa·s
293.15 K, x2 = 0.43
  viscosity: 390 mPa·s
293.15 K, x2 = 0.5321
  viscosity: 149.8 mPa·s
293.15 K, x2 = 0.6343
  viscosity: 66.1 mPa·s
293.15 K, x2 = 0.7195
  viscosity: 26.2 mPa·s
293.15 K, x2 = 0.8143
  viscosity: 10.86 mPa·s
293.15 K, x2 = 0.9085
  viscosity: 4.63 mPa·s
298.15 K, x2 = 0.21
  viscosity: 1299 mPa·s
298.15 K, x2 = 0.43
  viscosity: 279 mPa·s
298.15 K, x2 = 0.5321
  viscosity: 112.3 mPa·s
298.15 K, x2 = 0.6343
  viscosity: 51.9 mPa·s
298.15 K, x2 = 0.7195
  viscosity: 21.09 mPa·s
298.15 K, x2 = 0.8143
  viscosity: 9.32 mPa·s
298.15 K, x2 = 0.9085
  viscosity: 4.13 mPa·s
303.15 K, x2 = 0.21
  viscosity: 878 mPa·s
303.15 K, x2 = 0.3221
  viscosity: 384 mPa·s
303.15 K, x2 = 0.43
  viscosity: 207 mPa·s
303.15 K, x2 = 0.5321
  viscosity: 86.1 mPa·s
303.15 K, x2 = 0.6343
  viscosity: 41.4 mPa·s
303.15 K, x2 = 0.7195
  viscosity: 17.68 mPa·s
303.15 K, x2 = 0.8143
  viscosity: 8.08 mPa·s
303.15 K, x2 = 0.9085
  viscosity: 3.71 mPa·s
308.15 K, x2 = 0.21
  viscosity: 619 mPa·s
308.15 K, x2 = 0.3221
  viscosity: 279 mPa·s
308.15 K, x2 = 0.43
  viscosity: 154.3 mPa·s
308.15 K, x2 = 0.5321
  viscosity: 67.1 mPa·s
308.15 K, x2 = 0.6343
  viscosity: 33.5 mPa·s
308.15 K, x2 = 0.8143
  viscosity: 7.07 mPa·s
313.15 K, x2 = 0.21
  viscosity: 442 mPa·s
313.15 K, x2 = 0.3221
  viscosity: 208 mPa·s
313.15 K, x2 = 0.43
  viscosity: 117.6 mPa·s
313.15 K, x2 = 0.5321
  viscosity: 53.3 mPa·s
313.15 K, x2 = 0.6343
  viscosity: 27.6 mPa·s
313.15 K, x2 = 0.7195
  viscosity: 12.7 mPa·s
313.15 K, x2 = 0.8143
  viscosity: 6.24 mPa·s
313.15 K, x2 = 0.9085
  viscosity: 3.05 mPa·s
318.15 K, x2 = 0.3221
  viscosity: 156.4 mPa·s
318.15 K, x2 = 0.43
  viscosity: 91.2 mPa·s
318.15 K, x2 = 0.6343
  viscosity: 22.98 mPa·s
318.15 K, x2 = 0.7195
  viscosity: 10.97 mPa·s
318.15 K, x2 = 0.9085
  viscosity: 2.79 mPa·s
323.15 K, x2 = 0.3221
  viscosity: 120.6 mPa·s
323.15 K, x2 = 0.43
  viscosity: 72 mPa·s
323.15 K, x2 = 0.5321
  viscosity: 35.6 mPa·s
323.15 K, x2 = 0.6343
  viscosity: 19 mPa·s
323.15 K, x2 = 0.7195
  viscosity: 9.55 mPa·s
323.15 K, x2 = 0.9085
  viscosity: 2.57 mPa·s
328.15 K, x2 = 0.3221
  viscosity: 94.4 mPa·s
328.15 K, x2 = 0.43
  viscosity: 57.7 mPa·s
328.15 K, x2 = 0.5321
  viscosity: 29.5 mPa·s
328.15 K, x2 = 0.6343
  viscosity: 16.2 mPa·s
328.15 K, x2 = 0.7195
  viscosity: 8.38 mPa·s
328.15 K, x2 = 0.8143
  viscosity: 4.46 mPa·s
328.15 K, x2 = 0.9085
  viscosity: 2.377 mPa·s
333.15 K, x2 = 0.21
  viscosity: 137.7 mPa·s
333.15 K, x2 = 0.3221
  viscosity: 76.3 mPa·s
333.15 K, x2 = 0.43
  viscosity: 46.7 mPa·s
333.15 K, x2 = 0.5321
  viscosity: 24.9 mPa·s
333.15 K, x2 = 0.6343
  viscosity: 14.09 mPa·s
333.15 K, x2 = 0.7195
  viscosity: 7.41 mPa·s
333.15 K, x2 = 0.8143
  viscosity: 4.04 mPa·s
333.15 K, x2 = 0.9085
  viscosity: 2.211 mPa·s

## CCCCCC[n+]1ccn(C)c1.[Cl-] + CN1CCCC1=O
288.15 K, x2 = 0.2211
  viscosity: 2552 mPa·s
288.15 K, x2 = 0.3181
  viscosity: 1037 mPa·s
288.15 K, x2 = 0.4223
  viscosity: 406 mPa·s
288.15 K, x2 = 0.5271
  viscosity: 167.3 mPa·s
288.15 K, x2 = 0.6327
  viscosity: 63.8 mPa·s
288.15 K, x2 = 0.718
  viscosity: 29.2 mPa·s
288.15 K, x2 = 0.8139
  viscosity: 11.44 mPa·s
288.15 K, x2 = 0.9083
  viscosity: 4.69 mPa·s
293.15 K, x2 = 0.2211
  viscosity: 1609 mPa·s
293.15 K, x2 = 0.3181
  viscosity: 687 mPa·s
293.15 K, x2 = 0.5271
  viscosity: 123.1 mPa·s
293.15 K, x2 = 0.6327
  viscosity: 49.7 mPa·s
293.15 K, x2 = 0.718
  viscosity: 23.7 mPa·s
293.15 K, x2 = 0.8139
  viscosity: 9.86 mPa·s
293.15 K, x2 = 0.9083
  viscosity: 4.16 mPa·s
298.15 K, x2 = 0.4223
  viscosity: 207 mPa·s
298.15 K, x2 = 0.6327
  viscosity: 39.4 mPa·s
298.15 K, x2 = 0.9083
  viscosity: 3.72 mPa·s
303.15 K, x2 = 0.2211
  viscosity: 699 mPa·s
303.15 K, x2 = 0.3181
  viscosity: 329 mPa·s
303.15 K, x2 = 0.5271
  viscosity: 71.4 mPa·s
303.15 K, x2 = 0.6327
  viscosity: 31.7 mPa·s
303.15 K, x2 = 0.718
  viscosity: 16.08 mPa·s
303.15 K, x2 = 0.8139
  viscosity: 7.37 mPa·s
303.15 K, x2 = 0.9083
  viscosity: 3.35 mPa·s
308.15 K, x2 = 0.3181
  viscosity: 239 mPa·s
308.15 K, x2 = 0.4223
  viscosity: 115.1 mPa·s
308.15 K, x2 = 0.5271
  viscosity: 55.9 mPa·s
308.15 K, x2 = 0.6327
  viscosity: 26 mPa·s
308.15 K, x2 = 0.9083
  viscosity: 3.04 mPa·s
313.15 K, x2 = 0.2211
  viscosity: 342 mPa·s
313.15 K, x2 = 0.3181
  viscosity: 176 mPa·s
313.15 K, x2 = 0.4223
  viscosity: 87.7 mPa·s
313.15 K, x2 = 0.5271
  viscosity: 45.3 mPa·s
313.15 K, x2 = 0.8139
  viscosity: 5.71 mPa·s
318.15 K, x2 = 0.2211
  viscosity: 247 mPa·s
318.15 K, x2 = 0.3181
  viscosity: 132.3 mPa·s
318.15 K, x2 = 0.4223
  viscosity: 68.5 mPa·s
318.15 K, x2 = 0.5271
  viscosity: 36.7 mPa·s
318.15 K, x2 = 0.6327
  viscosity: 17.7 mPa·s
318.15 K, x2 = 0.718
  viscosity: 10.04 mPa·s
318.15 K, x2 = 0.8139
  viscosity: 5.08 mPa·s
318.15 K, x2 = 0.9083
  viscosity: 2.55 mPa·s
323.15 K, x2 = 0.2211
  viscosity: 186 mPa·s
323.15 K, x2 = 0.5271
  viscosity: 30.2 mPa·s
323.15 K, x2 = 0.6327
  viscosity: 15.13 mPa·s
323.15 K, x2 = 0.718
  viscosity: 8.75 mPa·s
323.15 K, x2 = 0.8139
  viscosity: 4.55 mPa·s
323.15 K, x2 = 0.9083
  viscosity: 2.353 mPa·s
328.15 K, x2 = 0.2211
  viscosity: 140.1 mPa·s
328.15 K, x2 = 0.3181
  viscosity: 79.8 mPa·s
328.15 K, x2 = 0.5271
  viscosity: 25.1 mPa·s
328.15 K, x2 = 0.6327
  viscosity: 13.09 mPa·s
328.15 K, x2 = 0.8139
  viscosity: 4.07 mPa·s
328.15 K, x2 = 0.9083
  viscosity: 2.185 mPa·s
333.15 K, x2 = 0.2211
  viscosity: 109.4 mPa·s
333.15 K, x2 = 0.3181
  viscosity: 63.8 mPa·s
333.15 K, x2 = 0.4223
  viscosity: 36.7 mPa·s
333.15 K, x2 = 0.5271
  viscosity: 21.19 mPa·s
333.15 K, x2 = 0.6327
  viscosity: 11.35 mPa·s
333.15 K, x2 = 0.718
  viscosity: 6.77 mPa·s
333.15 K, x2 = 0.8139
  viscosity: 3.68 mPa·s
